The values below come from patent US11059800B2, “Dehydroleucodine derivatives and uses thereof” (Bioventures, LLC, priority 2013, dated 2021).

One data set deals with KG-1. In words: Cytotoxicity, annexin V/7-AAD viability by flow cytometry, KG-1. The class given is cell-based, human. The settings on record: KG-1, 48 hours, drug range tested 1.25-160 μM. As for the experimental part:
In order to assess the structure-activity relationship of DHL and its derivatives, DHL and its derivatives were evaluated against eight human leukemia cell lines. Cell lines were cultured in Iscove's Modified Dulbecco's Medium (IMDM) supplemented with 10%˜20% fetal bovine serum (FBS) according to culture conditions indicated by ATCC and 1% penicillin/streptomycin (Pen/Strep) at 37° C. and 5% CO2. […] Cell viability was determined after incubating for 48 hours.

A further data set deals with MOLM-13. In words: Cytotoxicity, annexin V/7-AAD viability by flow cytometry, MOLM-13. The class given is cell-based, human. The settings on record: MOLM-13, 48 hours, drug range tested 1.25-160 μM. As for the experimental part: (§1) In order to assess the structure-activity relationship of DHL and its derivatives, DHL and its derivatives were evaluated against eight human leukemia cell lines. Cell lines were cultured in Iscove's Modified Dulbecco's Medium (IMDM) supplemented with 10%˜20% fetal bovine serum (FBS) according to culture conditions indicated by ATCC and 1% penicillin/streptomycin (Pen/Strep) at 37° C. and 5% CO2. The cells were seeded into 96-well plates and kept at a concentration of 0.5 million cells per mL. The samples were treated with DHL, Leucodine, DHL-Morpholine, DHL-Proline, DHL-Piperidine, and PTL at varying concentrations in triplicates. Cell viability was determined after incubating for 48 hours. The cells were stained with annexin V-fluorescein isothiocyanate or phycoeritrine (FITC/PE) and 7-aminoactinomycin (7-AAD) to detect phosphatidylserine exposition and cell permeability, respectively. At least 50,000 events were recorded per condition on either an LSR-II or LSR-Fortessa flow cytometer (BD Biosciences). Data analysis was conducted using FlowJo 9.6 software for Mac OS X (TreeStar). Cells that were negative for annexin V and 7-AAD were scored as viable.

A further data set has as its system TUR. Description: Cytotoxicity, annexin V/7-AAD viability by flow cytometry, TUR. The class given is cell-based, human. The settings on record: 48 hours, drug range tested 1.25-160 μM. As for the experimental part:
as §1

A further data set concerns Kasumi-1. In words: Cytotoxicity, annexin V/7-AAD viability by flow cytometry, Kasumi-1. The class given is cell-based, human. The settings on record: Kasumi-1, 48 hours, drug range tested 1.25-160 μM. As for the experimental part: as §1
For a further data set, the system named is THP-1. In words: Cytotoxicity, annexin V/7-AAD viability by flow cytometry, THP-1. The settings on record: THP-1, 48 hours, drug range tested 1.25-160 μM. The class given is cell-based, human. As for the experimental part: as §1
The next data set concerns U-937. In words: Cytotoxicity, annexin V/7-AAD viability by flow cytometry, U-937. The settings on record: U-937, 48 hours, drug range tested 1.25-160 μM. The class given is cell-based, human. As for the experimental part:
as §1

Another data set deals with MV4-11. In words: Cytotoxicity, annexin V/7-AAD viability by flow cytometry, MV4-11. The class given is cell-based, human. The following applies: MV4-11, 48 hours, drug range tested 1.25-160 μM. As for the experimental part:
as §1

A further data set has as its system HL-60. Description: Cytotoxicity, annexin V/7-AAD viability by flow cytometry, HL-60. The class given is cell-based, human. The settings on record: HL-60, 48 hours, drug range tested 1.25-160 μM. As for the experimental part: as §1
A further data set concerns HMOX1 (Heme oxygenase 1). Description: Quantitative PCR of HMOX1 in MOLM-13 or MV-411 cells. The following applies: 20 μM, 6 hours, MOLM-13 and MV-411 cells. The class given is cell-based. As for the experimental part: (§2) (FIG. 8A) Graphical representation of the fold changes of HMOX-1 in MOLM-13 cells. Cells were seeded at 0.5 million cells per milliliter and subject to 20 μM of DHL, leucodine, DHL-proline, DHL-piperidine, DHL-morpholine, or parthenolide for 6 hours. RNA was then extracted and quantitative PCR was performed. Experiments were performed in triplicates. Lines represent mean for each specimen, with error bars representing the SD. Fold change was calculated by the delta-delta Ct method. […] (FIG. 8D) Immunoblot for MOLM-13 cells after 6 hours of treatment with either DHL or PTL with 10 or 20 μM. Blot was probed for phospho-p65 and p65 antibodies. Total p65 is shown as the loading control.
(§3) (FIG. 9A) Graphical representation of the fold changes of HMOX-1 in MV-411 cells. Cells were seeded at 0.5 million cells per milliliter and subject to 20 μM of DHL, leucodine, DHL-proline, DHL-piperidine, DHL-morpholine, or parthenolide for 6 hours. RNA was then extracted and quantitative PCR was performed. Experiments were performed in triplicates. Lines represent mean for each specimen, with error bars representing the SD. Fold change was calculated by the delta-delta Ct method. (FIG. 9B) Graphical representation of the fold changes of HSPA1A in MV-411 cells, with the same experimental setup and analysis as FIG. […].
(§4) To compare these intracellular effects of DHL and its derivatives, quantitative PCR was performed (FIG. 8 and FIG. 9). MOLM-13 or MV-411 cells were seeded at 0.5 million cells per milliliter. Cells were treated for 6 hours with 20 μM of DHL, Leucodine, DHL-Morpholine, DHL-Proline, DHL-Piperidine or PTL, and then collected. Total RNA was extracted using the Qiashredder and Qiagen Rneasy Mini kits. […] Quantitative PCR was performed using probes for HMOX-1 (Hs01110251_m1), HSPA1A (Hs00359163_s1), and NFKB1 (Hs00765730_m1). […] Single-plex real-time PCR was performed in triplicates in a StepOne plus RealTime PCR system and analyzed with the StepOne Software. Fold change was calculated using the 2-DDCT method described by Livak and Schmittgen.

The next data set deals with HSPA1A. Description: Quantitative PCR of HSPA1A in MOLM-13 or MV-411 cells. The settings on record: 20 μM, 6 hours, MOLM-13 and MV-411 cells. The class given is cell-based. As for the experimental part:
as §2, §3, §4

Data set [1] has as its system eight human leukemia cell lines.
Experimental: Cell lines were cultured in Iscove's Modified Dulbecco's Medium (IMDM) supplemented with 10%˜20% fetal bovine serum (FBS) according to culture conditions indicated by ATCC and 1% penicillin/streptomycin (Pen/Strep) at 37° C. and 5% CO2. The cells were seeded into 96-well plates and kept at a concentration of 0.5 million cells per mL. […] Cell viability was determined after incubating for 48 hours. The cells were stained with annexin V-fluorescein isothiocyanate or phycoeritrine (FITC/PE) and 7-aminoactinomycin (7-AAD) to detect phosphatidylserine exposition and cell permeability, respectively. At least 50,000 events were recorded per condition on either an LSR-II or LSR-Fortessa flow cytometer (BD Biosciences). Data analysis was conducted using FlowJo 9.6 software for Mac OS X (TreeStar). Cells that were negative for annexin V and 7-AAD were scored as viable.
For the next data set, the system named is NF-κB. Description: Quantitative PCR of NF-κB transcript in MOLM-13 and MV-411 cells. The class given is cell-based. The following applies: 20 μM, 6 hours. As for the experimental part: as §2
as §4, with “collected.” for “collected. Total RNA was extracted using the Qiashredder and Qiagen Rneasy Mini kits.”

For the compound `CC1=CC(=O)C2=C(C)CCC3C(CN4CCOCC4)C(=O)OC3C12` (stereo not drawn) [DHL-Morpholine], the LD50 with KG-1 was 129 µM; in the data set on MOLM-13, above 160 µM; in the data set on TUR it was above 160 µM; in the data set on Kasumi-1, above 160 µM; with THP-1, 54.4 µM; in the data set on U-937, 74.7 µM. The LD50 in the data set with MV4-11 came to 21.1 µM; in the data set with HL-60 it was 166 µM.
For the compound `CC1=CC(=O)C2=C(C)CCC3C(CN4CCCCC4)C(=O)OC3C12` (stereo not drawn) [DHL-Piperidine], the LD50 in the data set on KG-1 is 182 µM; in the data set with MOLM-13, 52.3 µM; in the data set on TUR it was above 160 µM; in the data set on Kasumi-1, above 160 µM; in the data set on THP-1, 59.3 µM; in the data set with U-937, above 160 µM. The LD50 with MV4-11 worked out at 66.9 µM; with HL-60, 96.5 µM.
`CC1=CC(=O)C2=C(C)CCC3C(CN4CCCC4C(=O)O)C(=O)OC3C12` (stereo not drawn) [DHL-Proline]: the LD50 with KG-1 was 97.7 µM; with MOLM-13 it was 20.6 µM; in the data set with TUR it was 35.9 µM; with Kasumi-1, 28.1 µM; in the data set with THP-1, 26.7 µM; with U-937 it was 33.0 µM. Besides, the LD50 in the data set on MV4-11 worked out at 23.3 µM; in the data set on HL-60, 50.2 µM. Also, the “HMOX1 expression, fold change” value with HMOX1 (Heme oxygenase 1) was “upregulated HMOX1 and HSPA1A the most”. For the same compound, the “HSPA1A expression, fold change” value in the data set on HSPA1A is “upregulated HMOX1 and HSPA1A the most”. For the same compound, the “anti-leukemic activity / in vitro cytotoxicity” value in data set [1] is reported as “most potent derivative”.
`CC1=CC(=O)C2=C(C)CC[C@@H]3[C@H](OC(=O)[C@H]3C)[C@@H]12` [Leucodine, leucodine]: the LD50 with KG-1 is above 160 µM; in the data set on MOLM-13 it was above 160 µM; in the data set on TUR it was 105 µM; with Kasumi-1 it was above 160 µM; in the data set on THP-1 it was 121 µM; in the data set with U-937, above 160 µM. For the same compound, the LD50 in the data set on MV4-11 and with HL-60 was above 160 µM in each case. In addition, in the data set with HMOX1 (Heme oxygenase 1), the “HMOX1 expression, fold change” value is “upregulated”. Moreover, the “HSPA1A expression, fold change” value in the data set on HSPA1A was “upregulated”. Moreover, the “anti-leukemic activity / in vitro cytotoxicity” value in [1] is on record as “not found to be active”. Besides, in the data set with NF-κB, the “NF-κB transcript levels” value is recorded as “slightly downregulated”.
